Tests used:
Assay type in all cases: in vivo
[1] = tested on: wild poinsettia (Euphorbia heterophylla); test: Test E greenhouse herbicide test, pre- and postemergence
How it was run: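 Herbicidal effect was judged by eye relative to untreated plants 14 to 21 d after spraying, using 0 for no effect and 100 for complete control. Preemergence sprays went onto freshly seeded silt loam; postemergence sprays onto 2–18 cm seedlings.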

[2] = tested on: waterhemp_RES1 (ALS & Triazine resistant common waterhemp, Amaranthus rudis); test: Test E greenhouse herbicide test, postemergence
Method: (§1) At the same time, plants from these crop and weed species and also waterhemp_RES1, (ALS & Triazine resistant common waterhemp, Amaranthus rudis), and waterhemp_RES2, (ALS & HPPD resistant common waterhemp, Amaranthus rudis) were planted in pots containing Redi-Earth® planting medium (Scotts Company, 14111 Scottslawn Road, Marysville, Ohio 43041) comprising spaghnum peat moss, vermiculite, wetting agent and starter nutrients were treated with postemergence applications of test chemicals formulated in the same manner. Plants ranged in height from 2 to 18 cm for postemergence treatments (1- to 4-leaf stage). Treated plants and controls were maintained in a greenhouse for 14 to 21 d, after which time all species were compared to controls and visually evaluated. Plant response ratings, summarized in Table E, are based on a scale of 0 to 100 where 0 is no effect and 100 is complete control. A dash (-) response means no test result.

[3] = tested on: waterhemp_RES2 (ALS & HPPD resistant common waterhemp, Amaranthus rudis); test: Test E greenhouse herbicide test, postemergence
Method: as §1

[4] = 62 g ai/ha, Postemergence, scale 0 to 100 (0 no effect, 100 complete control)
[5] = 62 g ai/ha, Preemergence, scale 0 to 100 (0 no effect, 100 complete control)
[6] = 125 g ai/ha, Postemergence, scale 0 to 100 (0 no effect, 100 complete control)
[7] = 125 g ai/ha, Preemergence, scale 0 to 100 (0 no effect, 100 complete control)
[8] = 250 g ai/ha, Postemergence, scale 0 to 100 (0 no effect, 100 complete control)
[9] = Postemergence, 31 g ai/ha, visual, scale 0 no effect to 100 complete control
[10] = Preemergence, 31 g ai/ha, scale 0 to 100, 0 no effect, 100 complete control
[11] = Preemergence, 250 g ai/ha, visual, scale 0 no effect to 100 complete control
[12] = 31 g ai/ha, visual, scale 0 no effect to 100 complete control
[13] = 62 g ai/ha, scale 0 to 100 (0 no effect, 100 complete control)
[14] = 125 g ai/ha, scale 0 to 100 (0 no effect, 100 complete control)
[15] = 250 g ai/ha, scale 0 to 100 (0 no effect, 100 complete control)
[16] = 16 g ai/ha, visual, scale 0 no effect to 100 complete control
[17] = Postemergence, 16 g ai/ha, visual, scale 0 no effect to 100 complete control
[18] = Preemergence, 16 g ai/ha, scale 0 to 100, 0 no effect, 100 complete control

| Structure (SMILES) | Plant response rating, Poinsettia, Wild [1, 4] | Plant response rating, Poinsettia, Wild [1, 5] | Plant response rating, Poinsettia, Wild [1, 6] | Plant response rating, Poinsettia, Wild [1, 7] | Plant response rating, Poinsettia, Wild [1, 8] | Plant response rating, Poinsettia, Wild [1, 9] | Plant response rating, Poinsettia, Wild [1, 10] | Plant response rating, Poinsettia, Wild [1, 11] | Plant response rating, Waterhemp_RES1 [2, 12] | Plant response rating, Waterhemp_RES1 [2, 13] | Plant response rating, Waterhemp_RES1 [2, 14] | Plant response rating, Waterhemp_RES1 [2, 15] | Plant response rating, Waterhemp_RES2 [3, 12] | Plant response rating, Waterhemp_RES2 [3, 13] | Plant response rating, Waterhemp_RES2 [3, 14] | Plant response rating, Waterhemp_RES2 [3, 15] | Plant response rating, Waterhemp_RES1 [2, 16] | Plant response rating, Waterhemp_RES2 [3, 16] | Plant response rating, Poinsettia, Wild [1, 17] | Plant response rating, Poinsettia, Wild [1, 18] |
| --- | --- | --- | --- | --- | --- | --- | --- | --- | --- | --- | --- | --- | --- | --- | --- | --- | --- | --- | --- | --- |
| Cc1ccc2sc(Br)c(-c3c(O)c(C)nn(C)c3=O)c2c1 [Compound 79] | 10 | 60 | 20 | 60 | 10 | 10 | 50 | 55 | 50 | 60 | 70 | 75 | 20 | 15 | 15 | 55 | – | – | – | – |
| Cc1ccc2sc(C)c(-c3c(OC(=O)OC(C)C)c(C)nn(C)c3=O)c2c1 [Compound 66] | – | – | – | – | – | – | – | – | 80 | 75 | 80 | – | 40 | 40 | 50 | – | 70 | 40 | – | – |
| Cc1nn(C)c(=O)c(-c2ccc(Br)c3ccccc23)c1O [Compound 75] | – | – | – | – | – | – | – | – | 90 | 90 | 95 | 90 | 60 | 60 | 60 | 75 | – | – | – | – |
| CC(=O)Oc1c(C)nn(C)c(=O)c1-c1c(C)cc(C)c2ccccc12 [Compound 99] | 40 | – | 50 | – | – | 30 | – | – | 50 | – | 75 | – | 50 | – | 60 | – | 50 | 50 | 35 | – |
| COC(=O)Oc1c(C)nn(C)c(=O)c1-c1c(C)sc2ccc(C)cc12 [Compound 80] | – | 0 | – | 40 | – | – | 0 | – | – | – | – | – | – | – | – | – | – | – | – | 0 |
| Cn1nc(Br)c(O)c(-c2cccc3ccccc23)c1=O [Compound 20] | 20 | – | 30 | – | 30 | 0 | – | – | 60 | 70 | 80 | 80 | 50 | 50 | 50 | 60 | – | – | – | – |
| CCc1sc2c(C)cc(C)cc2c1-c1c(O)c(C)nn(C)c1=O [Compound 57] | 10 | 20 | 30 | 25 | 20 | 10 | 0 | 50 | 40 | 50 | 40 | 60 | 20 | 10 | 20 | 50 | – | – | – | – |
| Cc1ccc2ccccc2c1-c1c(OC(=O)OC(C)C)c(C)nn(C)c1=O [Compound 72] | 40 | 15 | 65 | 10 | 75 | 30 | 0 | 20 | 60 | 80 | 80 | 90 | 35 | 40 | 50 | 65 | – | – | – | – |
| CCc1sc2ccc(C)cc2c1-c1c(O)c(C)nn(C)c1=O [Compound 47] | 15 | 0 | 25 | 0 | 30 | 10 | 0 | 20 | 60 | 70 | 80 | 95 | 15 | 50 | 60 | 70 | – | – | – | – |
| CCCC(=O)Oc1c(C)nn(C)c(=O)c1-c1c(C)sc2ccc(C)cc12 [Compound 105] | 25 | 10 | 30 | 10 | – | 30 | 10 | – | 80 | – | 100 | – | 50 | – | 70 | – | 80 | 40 | 30 | 0 |
| Cc1nn(C)c(=O)c(-c2ccc(F)c3ccccc23)c1O [Compound 41] | – | 40 | – | 40 | – | – | 15 | 65 | 75 | 75 | 90 | 95 | 20 | 80 | 80 | 85 | – | – | – | – |
| Cc1nn(C)c(=O)c(-c2cccc3ccc(Br)cc23)c1O [Compound 126] | 20 | – | 50 | – | 50 | 30 | – | – | 75 | – | 90 | 100 | 55 | – | 70 | 85 | – | – | – | – |
| Cc1cc2ccccc2c(-c2c(O)c(C)nn(C)c2=O)c1C [Compound 34] | – | – | – | – | – | – | – | – | 90 | 90 | 90 | 95 | 40 | 80 | – | 70 | – | – | – | – |

Reference: patent publication US10597388B2, “Pyridazinone herbicides” (FMC CORPORATION, priority 2014, dated 2020)
